# Source: ChEMBL document CHEMBL1151757, “Synthesis, radiosynthesis, and biological evaluation of fluorine-18-labeled 2beta-carbo(fluoroalkoxy)-3beta-(3'-((Z)-2-haloethenyl)phenyl)nortropanes: candidate radioligands for in vivo imaging of the serotonin transporter with positron emission tomography” (J Med Chem, 2008)
# Tests used:
# Putamen [1] = assay: Drug uptake in anesthetized cynomolgus monkey brain putamen after 55 mins postinjection; assay type: ADME, organism-based, Macaca fascicularis; parameters: unit not given here; settings: in vivo
# Medulla [2] = assay: Drug uptake in anesthetized cynomolgus monkey brain medulla after 125 mins postinjection; assay type: ADME, organism-based, Macaca fascicularis; settings: in vivo
# [3] = Drug uptake in anesthetized cynomolgus monkey brain occipital lobe after 27.5 mins postinjection; assay type: ADME, organism-based, Macaca fascicularis; settings: in vivo
# Pons [4] = assay: Drug uptake in anesthetized cynomolgus monkey brain pons after 225 mins postinjection; assay type: ADME, organism-based, Macaca fascicularis; settings: in vivo, 3.75 h
# Midbrain [5] = assay: Drug uptake in anesthetized cynomolgus monkey brain midbrain after 235 mins postinjection; assay type: ADME, organism-based, Macaca fascicularis; settings: in vivo
# [6] = Ratio of drug uptake in caudate to cerebellum in anesthetized cynomolgus monkey after 225 mins postinjection; assay type: ADME, organism-based, Macaca fascicularis; settings: in vivo, 3.75 h
# Pons [7] = assay: Drug uptake in anesthetized cynomolgus monkey brain pons after 215 mins postinjection; assay type: ADME, organism-based, Macaca fascicularis; settings: in vivo
# Medulla [8] = assay: Drug uptake in anesthetized cynomolgus monkey brain medulla after 15.5 mins postinjection; assay type: ADME, organism-based, Macaca fascicularis; settings: in vivo
# [9] = Drug uptake in anesthetized cynomolgus monkey brain frontal lobe after 235 mins postinjection; assay type: ADME, organism-based, Macaca fascicularis; settings: in vivo
# [10] = Drug uptake in anesthetized cynomolgus monkey brain occipital lobe after 4.5 mins postinjection; assay type: ADME, organism-based, Macaca fascicularis; settings: in vivo, 0.075 h
# Caudate [11] = assay: Drug uptake in anesthetized cynomolgus monkey brain caudate after 235 mins postinjection; assay type: ADME, organism-based, Macaca fascicularis, Caudate nucleus; settings: in vivo
# Medulla [12] = assay: Drug uptake in anesthetized cynomolgus monkey brain medulla after 85 mins postinjection; assay type: ADME, organism-based, Macaca fascicularis; settings: in vivo
# [13] = Drug uptake in anesthetized cynomolgus monkey brain occipital lobe after 18.5 mins postinjection; assay type: ADME, organism-based, Macaca fascicularis; settings: in vivo
# [14] = Ratio of drug uptake in medulla to cerebellum in anesthetized cynomolgus monkey after 65 mins postinjection; assay type: ADME, organism-based, Macaca fascicularis; settings: in vivo
# [15] = Ratio of drug uptake in thalamus to cerebellum in anesthetized cynomolgus monkey after 9.5 mins postinjection; assay type: ADME, organism-based, Macaca fascicularis; settings: in vivo
# Caudate [16] = assay: Drug uptake in anesthetized cynomolgus monkey brain caudate after 215 mins postinjection; assay type: ADME, organism-based, Macaca fascicularis, Caudate nucleus; settings: in vivo
# [17] = Ratio of drug uptake in occipital lobe to cerebellum in anesthetized cynomolgus monkey after 235 mins postinjection; assay type: ADME, organism-based, Macaca fascicularis; settings: in vivo
# Thalamus [18] = assay: Drug uptake in anesthetized cynomolgus monkey brain thalamus after 85 mins postinjection; assay type: ADME, organism-based, Macaca fascicularis; parameters: unit not given here; settings: in vivo
# [19] = Ratio of drug uptake in medulla to cerebellum in anesthetized cynomolgus monkey after 1.5 mins postinjection; assay type: ADME, organism-based, Macaca fascicularis; settings: in vivo, 0.025 h
# Medulla [20] = assay: Drug uptake in anesthetized cynomolgus monkey brain medulla after 205 mins postinjection; assay type: ADME, organism-based, Macaca fascicularis; settings: in vivo
# Thalamus [21] = assay: Drug uptake in anesthetized cynomolgus monkey brain thalamus after 45 mins postinjection; assay type: ADME, organism-based, Macaca fascicularis; parameters: unit not given here; settings: in vivo, 0.75 h
# Putamen [22] = assay: Drug uptake in anesthetized cynomolgus monkey brain putamen after 6.5 mins postinjection; assay type: ADME, organism-based, Macaca fascicularis; parameters: unit not given here; settings: in vivo
# [23] = Ratio of drug uptake in caudate to cerebellum in anesthetized cynomolgus monkey after 135 mins postinjection; assay type: ADME, organism-based, Macaca fascicularis; settings: in vivo, 2.25 h
# Medulla [24] = assay: Drug uptake in anesthetized cynomolgus monkey brain medulla after 105 mins postinjection; assay type: ADME, organism-based, Macaca fascicularis; settings: in vivo, 1.75 h
# [25] = Drug uptake in anesthetized cynomolgus monkey brain frontal lobe after 9.5 mins postinjection; assay type: ADME, organism-based, Macaca fascicularis; settings: in vivo
# [26] = Drug uptake in anesthetized cynomolgus monkey brain cerebellum after 4.5 mins postinjection; assay type: ADME, organism-based, Macaca fascicularis; settings: in vivo, 0.075 h
# [27] = Ratio of drug uptake in pons to cerebellum in anesthetized cynomolgus monkey after 1.5 mins postinjection; assay type: ADME, organism-based, Macaca fascicularis; settings: in vivo, 0.025 h
# Medulla [28] = assay: Drug uptake in anesthetized cynomolgus monkey brain medulla after 75 mins postinjection; assay type: ADME, organism-based, Macaca fascicularis; settings: in vivo, 1.25 h
# Pons [29] = assay: Drug uptake in anesthetized cynomolgus monkey brain pons after 18.5 mins postinjection; assay type: ADME, organism-based, Macaca fascicularis; settings: in vivo
# Medulla [30] = assay: Drug uptake in anesthetized cynomolgus monkey brain medulla after 55 mins postinjection; assay type: ADME, organism-based, Macaca fascicularis; settings: in vivo
# Pons [31] = assay: Drug uptake in anesthetized cynomolgus monkey brain pons after 195 mins postinjection; assay type: ADME, organism-based, Macaca fascicularis; settings: in vivo, 3.25 h
# Thalamus [32] = assay: Drug uptake in anesthetized cynomolgus monkey brain thalamus after 155 mins postinjection; assay type: ADME, organism-based, Macaca fascicularis; parameters: unit not given here; settings: in vivo
# [33] = Drug uptake in anesthetized cynomolgus monkey brain occipital lobe after 95 mins postinjection; assay type: ADME, organism-based, Macaca fascicularis; settings: in vivo
# [34] = Ratio of drug uptake in caudate to cerebellum in anesthetized cynomolgus monkey after 65 mins postinjection; assay type: ADME, organism-based, Macaca fascicularis; settings: in vivo
# Putamen [35] = assay: Drug uptake in anesthetized cynomolgus monkey brain putamen after 195 mins postinjection; assay type: ADME, organism-based, Macaca fascicularis; settings: in vivo, 3.25 h
# [36] = Ratio of drug uptake in putamen to cerebellum in anesthetized cynomolgus monkey after 6.5 mins postinjection; assay type: ADME, organism-based, Macaca fascicularis; settings: in vivo
# [37] = Ratio of drug uptake in medulla to cerebellum in anesthetized cynomolgus monkey after 165 mins postinjection; assay type: ADME, organism-based, Macaca fascicularis; settings: in vivo, 2.75 h
# Thalamus [38] = assay: Drug uptake in anesthetized cynomolgus monkey brain thalamus after 27.5 mins postinjection; assay type: ADME, organism-based, Macaca fascicularis; parameters: unit not given here; settings: in vivo
# [39] = Ratio of drug uptake in pons to cerebellum in anesthetized cynomolgus monkey after 225 mins postinjection; assay type: ADME, organism-based, Macaca fascicularis; settings: in vivo, 3.75 h
# [40] = Ratio of drug uptake in midbrain to cerebellum in anesthetized cynomolgus monkey after 215 mins postinjection; assay type: ADME, organism-based, Macaca fascicularis; settings: in vivo
# [41] = Ratio of drug uptake in occipital lobe to cerebellum in anesthetized cynomolgus monkey after 4.5 mins postinjection; assay type: ADME, organism-based, Macaca fascicularis; settings: in vivo, 0.075 h
# Medulla [42] = assay: Drug uptake in anesthetized cynomolgus monkey brain medulla after 6.5 mins postinjection; assay type: ADME, organism-based, Macaca fascicularis; settings: in vivo
# Thalamus [43] = assay: Drug uptake in anesthetized cynomolgus monkey brain thalamus after 115 mins postinjection; assay type: ADME, organism-based, Macaca fascicularis; parameters: unit not given here; settings: in vivo
# [44] = Drug uptake in anesthetized cynomolgus monkey brain cerebellum after 215 mins postinjection; assay type: ADME, organism-based, Macaca fascicularis; settings: in vivo
# [45] = Drug uptake in anesthetized cynomolgus monkey brain frontal lobe after 115 mins postinjection; assay type: ADME, organism-based, Macaca fascicularis; settings: in vivo
# Medulla [46] = assay: Drug uptake in anesthetized cynomolgus monkey brain medulla after 195 mins postinjection; assay type: ADME, organism-based, Macaca fascicularis; settings: in vivo, 3.25 h
# Putamen [47] = assay: Drug uptake in anesthetized cynomolgus monkey brain putamen after 27.5 mins postinjection; assay type: ADME, organism-based, Macaca fascicularis; parameters: unit not given here; settings: in vivo
# [48] = Ratio of drug uptake in midbrain to cerebellum in anesthetized cynomolgus monkey after 2.5 mins postinjection; assay type: ADME, organism-based, Macaca fascicularis; settings: in vivo
# Thalamus [49] = assay: Drug uptake in anesthetized cynomolgus monkey brain thalamus after 55 mins postinjection; assay type: ADME, organism-based, Macaca fascicularis; parameters: unit not given here; settings: in vivo
# [50] = Ratio of drug uptake in putamen to cerebellum in anesthetized cynomolgus monkey after 65 mins postinjection; assay type: ADME, organism-based, Macaca fascicularis; settings: in vivo
# [51] = Drug uptake in anesthetized cynomolgus monkey brain occipital lobe after 175 mins postinjection; assay type: ADME, organism-based, Macaca fascicularis; settings: in vivo
# [52] = Drug uptake in anesthetized cynomolgus monkey brain occipital lobe after 75 mins postinjection; assay type: ADME, organism-based, Macaca fascicularis; settings: in vivo, 1.25 h
# Pons [53] = assay: Drug uptake in anesthetized cynomolgus monkey brain pons after 115 mins postinjection; assay type: ADME, organism-based, Macaca fascicularis; settings: in vivo
# [54] = Drug uptake in anesthetized cynomolgus monkey brain occipital lobe after 105 mins postinjection; assay type: ADME, organism-based, Macaca fascicularis; settings: in vivo, 1.75 h
# Caudate [55] = assay: Drug uptake in anesthetized cynomolgus monkey brain caudate after 105 mins postinjection; assay type: ADME, organism-based, Macaca fascicularis, Caudate nucleus; settings: in vivo, 1.75 h
# [56] = Drug uptake in anesthetized cynomolgus monkey brain frontal lobe after 6.5 mins postinjection; assay type: ADME, organism-based, Macaca fascicularis; settings: in vivo
# [57] = Ratio of drug uptake in occipital lobe to cerebellum in anesthetized cynomolgus monkey after 18.5 mins postinjection; assay type: ADME, organism-based, Macaca fascicularis; settings: in vivo
# Midbrain [58] = assay: Drug uptake in anesthetized cynomolgus monkey brain midbrain after 85 mins postinjection; assay type: ADME, organism-based, Macaca fascicularis; parameters: unit not given here; settings: in vivo
# Pons [59] = assay: Drug uptake in anesthetized cynomolgus monkey brain pons after 235 mins postinjection; assay type: ADME, organism-based, Macaca fascicularis; settings: in vivo
# [60] = Drug uptake in anesthetized cynomolgus monkey brain cerebellum after 195 mins postinjection; assay type: ADME, organism-based, Macaca fascicularis; settings: in vivo, 3.25 h
# Medulla [61] = assay: Drug uptake in anesthetized cynomolgus monkey brain medulla after 45 mins postinjection; assay type: ADME, organism-based, Macaca fascicularis; settings: in vivo, 0.75 h
# Thalamus [62] = assay: Drug uptake in anesthetized cynomolgus monkey brain thalamus after 145 mins postinjection; assay type: ADME, organism-based, Macaca fascicularis; parameters: unit not given here; settings: in vivo
# [63] = Drug uptake in anesthetized cynomolgus monkey brain occipital lobe after 65 mins postinjection; assay type: ADME, organism-based, Macaca fascicularis; settings: in vivo
# Pons [64] = assay: Drug uptake in anesthetized cynomolgus monkey brain pons after 35 mins postinjection; assay type: ADME, organism-based, Macaca fascicularis; settings: in vivo
# [65] = Drug uptake in anesthetized cynomolgus monkey brain frontal lobe after 3.5 mins postinjection; assay type: ADME, organism-based, Macaca fascicularis; settings: in vivo
# [66] = Drug uptake in anesthetized cynomolgus monkey brain occipital lobe after 205 mins postinjection; assay type: ADME, organism-based, Macaca fascicularis; settings: in vivo
# Medulla [67] = assay: Drug uptake in anesthetized cynomolgus monkey brain medulla after 65 mins postinjection; assay type: ADME, organism-based, Macaca fascicularis; settings: in vivo
# [68] = Drug uptake in anesthetized cynomolgus monkey brain occipital lobe after 135 mins postinjection; assay type: ADME, organism-based, Macaca fascicularis; settings: in vivo, 2.25 h
smiles,measurement,setting,value
O=C(OCC[18F])C1C2CCC(CC1c1cccc(/C=C\Br)c1)N2 (stereo not drawn),Drug uptake,Putamen [1],5.05
same,Drug uptake,Medulla [2],4.14
same,Drug uptake,[3],3.28
same,Drug uptake,Pons [4],2.77
same,Drug uptake,Midbrain [5],3.76
same,Ratio,[6],1.8
same,Drug uptake,Pons [7],3.22
same,Drug uptake,Medulla [8],4.15
same,Drug uptake,[9],1.87
same,Drug uptake,[10],1.32
same,Drug uptake,Caudate [11],2.53
same,Drug uptake,Medulla [12],4.73
same,Drug uptake,[13],2.89
same,Ratio,[14],1.4
same,Ratio,[15],0.9
same,Drug uptake,Caudate [16],2.85
same,Ratio,[17],1.2
same,Drug uptake,Thalamus [18],4.41
same,Ratio,[19],1.3
same,Drug uptake,Medulla [20],3.14
same,Drug uptake,Thalamus [21],4.15
same,Drug uptake,Putamen [22],3.01
same,Ratio,[23],1.5
same,Drug uptake,Medulla [24],4.31
same,Drug uptake,[25],2.06
same,Drug uptake,[26],1.76
same,Ratio,[27],1.6
same,Drug uptake,Medulla [28],4.73
same,Drug uptake,Pons [29],4.13
same,Drug uptake,Medulla [30],4.82
same,Drug uptake,Pons [31],3.63
same,Drug uptake,Thalamus [32],3.64
same,Drug uptake,[33],3.16
same,Ratio,[34],1.2
same,Drug uptake,Putamen [35],3.53
same,Ratio,[36],1.1
same,Ratio,[37],1.8
same,Drug uptake,Thalamus [38],3.94
same,Ratio,[39],1.7
same,Ratio,[40],2.1
same,Ratio,[41],0.7
same,Drug uptake,Medulla [42],3.64
same,Drug uptake,Thalamus [43],4.22
same,Drug uptake,[44],1.78
same,Drug uptake,[45],2.69
same,Drug uptake,Medulla [46],3.34
same,Drug uptake,Putamen [47],4.67
same,Ratio,[48],1.3
same,Drug uptake,Thalamus [49],4.38
same,Ratio,[50],1.5
same,Drug uptake,[51],2.42
same,Drug uptake,[52],3.49
same,Drug uptake,Pons [53],4.51
same,Drug uptake,[54],3.15
same,Drug uptake,Caudate [55],4.01
same,Drug uptake,[56],1.75
same,Ratio,[57],0.8
same,Drug uptake,Midbrain [58],4.9
same,Drug uptake,Pons [59],3.08
same,Drug uptake,[60],1.79
same,Drug uptake,Medulla [61],4.87
same,Drug uptake,Thalamus [62],3.86
same,Drug uptake,[63],3.45
same,Drug uptake,Pons [64],4.22
same,Drug uptake,[65],0.62
same,Drug uptake,[66],2.28
same,Drug uptake,Medulla [67],4.81
same,Drug uptake,[68],2.78
